Among the data in patent US20240261418A1, “SOS1 DEGRADING AGENT AND PREPARATION METHOD THEREFOR AND APPLICATION THEREOF” (SHANGHAI LEADINGTAC PHARMACEUTICAL CO. LTD., priority 2021, published 2024) are IC50 values, retold here.

For the assay, the system named is KRAS G12C mutant human non-small cell lung cancer cells NCI-H358. Put plainly: 3D cell proliferation inhibition assay, NCI-H358. The class given is cell-based. The following applies: NCI-H358, 168 h, 7 days, CTG. The text has this:
Test Example 4: 3D Cell Proliferation Inhibition Assay
The inhibitory effect of the compounds on the proliferation of 3D cells was investigated on KRAS G12C mutant human non-small cell lung cancer cells NCI-H358 (ATCC or Stem Cell Bank, Chinese Academy of Sciences), KRAS G12D mutant human metastatic pancreatic adenocarcinoma cells AsPC-1 (ATCC), KRAS G12V mutant human lung adenocarcinoma cells NCI-H441 (ATCC), and KRAS G13D mutant human colorectal adenocarcinoma epithelial cells DLD-1 (ATCC). The specific procedures were as follows:
200 nL of compound solution diluted in a gradient was added to corresponding microwells of a 384-well low-adsorption microwell plate (Corning, 3657) using an Echo sonic pipetting system (Labcyte, Echo 550), so that the final concentration of the test compound in the reaction system was in a range of 20000 nM-0.008 nM. Then 40 μL of cells at a certain density were added to the corresponding microplate. In addition to test wells for the test compounds, both a DMSO control well and a medium control well were set, with the DMSO control well containing DMSO and cells and the medium well containing only medium. […] The plate was incubated at room temperature for 30 min and read on a microplate reader EnVision using the chemiluminescence program. […]

Each structure is given as a SMILES string.

Turning to `COc1cc2nc(C)nc(N[C@H](C)c3cc(-c4c(Cl)cccc4CN(C)C)cs3)c2cc1[C@H]1CC[C@H](C(=O)N2CCN(CC3CCC4(CC3)CCN(C(=O)c3ccc(Cl)c(N5CCC(=O)NC5=O)c3)CC4)CC2)CC1` [Example 1, 1-(2-chloro-5-(9-((4-((1R,4R)-4-(4-(((R)-1-(4-(2-chloro-6-((dimethylamino)methyl)phenyl)thien-2-yl)ethyl)amino)-7-methoxy-2-methylquinazolin-6-yl)cyclohexane-1-carbonyl)piperazin-1-yl)methyl)-3-azaspiro[5.5]undecane-3-carbonyl)phenyl)dihydropyrimidine-2,4(1H,3H)-dione], the IC50 is at most 15 nM.

Molecule `COc1cc2nc(C)nc(N[C@H](C)c3cc(-c4c(Cl)cccc4CN(C)C)cs3)c2cc1[C@H]1CC[C@H](C(=O)N2CCC(CCOCC3CCN(C(=O)c4ccc(Cl)c(N5CCC(=O)NC5=O)c4)CC3)CC2)CC1` [Example 5, 1-(2-chloro-5-(4-((2-(1-((1R,4R)-4-(4-(((R)-1-(4-(2-chloro-6-((dimethylamino)methyl)phenyl)thien-2-yl)ethyl)amino)-7-methoxy-2-methylquinazolin-6-yl)cyclohexane-1-carbonyl)piperidin-4-yl)ethoxy)methyl)piperidine-1-carbonyl)phenyl)dihydropyrimidine-2,4(1H,3H)-dione] showed a half-maximal inhibitory concentration (IC50) of at most 15 nM.

The term IC50 denotes the concentration at which inhibition is half-maximal.
